XC50 data for 34 molecules are collected here from ChEMBL document CHEMBL1157539, “Thousands of chemical starting points for antimalarial lead identification” (Nature, 2010).

This assay has as its system Plasmodium falciparum. Kind of assay: GSK_TCMDC: Inhibition of Plasmodium falciparum 3D7 in whole erythrocytes, using parasite LDH activity as an index of growth. The format is functional, organism-based.

Turning to `COc1ccc(S(=O)(=O)NC2CCN(c3ccnc4cc(Cl)ccc34)C2)cc1` (stereo not given), under “Plasmodium falciparum, 3D7”, the XC50 worked out at 493 nM.

On to `COc1ccc(Oc2ccc(Nc3ccnc4ccc(C(F)(F)F)cc34)cc2)cc1OC`, for which, under “Plasmodium falciparum, 3D7”, the XC50 was 1060 nM.

The molecule `CCCCCCCN1CC[C@@H](CCCc2ccnc3ccc(OCCCCNC(N)=O)cc23)[C@@H](CC)C1` gave an XC50 (Plasmodium falciparum, 3D7) of 835 nM.

With `CCNC(=O)NC1CCN(Cc2c(-c3cccs3)nc3ccccc3c2C(=O)N[C@@H](C)C2CCCCC2)CC1`, the XC50 (Plasmodium falciparum, 3D7) came to 91.3 nM.

As to `O=C(Nc1ccc(OCc2ccccc2)cc1)c1nc2ccccc2nc1Cl`, the XC50 (Plasmodium falciparum, 3D7) worked out at 254 nM.

With `O=C(/C=C/c1ccc(Cl)c(Cl)c1)NCCCCCN1CCC(c2c[nH]c3ccccc23)C(O)C1` (stereo not given), the XC50 was 819 nM. This molecule also had an XC50 (Plasmodium falciparum, 3D7) of 795 nM.

On to `Cc1nnsc1C(=O)Nc1cccc(-c2ccc(-c3nc4cc(F)ccc4[nH]3)s2)c1`, for which the XC50 (Plasmodium falciparum, 3D7) came to 889 nM.

Take `Cn1c(N)c(C(=O)CSc2nnc(-c3cccs3)n2Cc2ccccc2)c(=O)n(C)c1=O`: the XC50 (Plasmodium falciparum, 3D7) worked out at 792 nM.

The molecule `CC(C)CC(=O)Nc1cc(=O)[nH]c2nc(-c3ccccc3)nn12` displayed an XC50 (Plasmodium falciparum, 3D7) of 351 nM.

`O=C(Nc1ccc(Cl)cc1C(=O)Nc1ccncc1)c1ccc(Cl)cc1Cl`: the XC50 (Plasmodium falciparum, 3D7) was 611 nM.

As for `COc1ccc(-c2nonc2NC(=O)c2ccc(C(C)(C)C)cc2)cc1OC`, the XC50 (Plasmodium falciparum, 3D7) stood at 814 nM.

For `O=C(c1cc2ccccc2o1)N1CCc2cc3nccc(N4CCN5CCC[C@H]5C4)c3cc21`, the XC50 (Plasmodium falciparum, 3D7) was determined as 812 nM.

For the setting “Plasmodium falciparum, 3D7”, `N#Cc1ccc(-c2ccc(C(=O)NCCCCN3CCC(c4ccc5c(c4OCC(N)=O)CCCC5)CC3)nc2)cc1` yielded an XC50 of 730 nM.

For the molecule `CCN(CC)CCCNc1cc[n+]([O-])c2cc3ccccc3cc12`, the XC50 (Plasmodium falciparum, 3D7) came out at 871 nM.

On to `CCCc1ccc(N2C(N)=NC(N)=NC2(C)C)cc1`, for which the XC50 (Plasmodium falciparum, 3D7) was 28.4 nM.

In turn, `CC[C@H](N/C(=N\c1ccc(-c2ccccc2)cc1)Nc1ccc(C#N)cc1O)c1ccccc1` registered an XC50 (Plasmodium falciparum, 3D7) of 759 nM.

For the molecule `CN1CCC(N2CCN(Cc3cccc(-c4cccc(-c5nc6ccccc6[nH]5)c4)c3)CC2)CC1`, the XC50 (Plasmodium falciparum, 3D7) is 194 nM.

Molecule `Cc1ccc2[nH]cc(/C=C/C(=O)NC3CCC(CCN4CCc5ccc(C#N)cc5CC4)CC3)c2c1` (stereo not given) had an XC50 (Plasmodium falciparum, 3D7) of 916 nM.

Where the note is “Plasmodium falciparum, 3D7”, `COc1ccc2ncc(OC)c(CCN3CC[C@@H](NCc4ccc5c(n4)NC(=O)CS5)[C@H](O)C3)c2n1` showed an XC50 of 831 nM.

Consider `O=C(Nc1cccnc1)c1cn(-c2ccccc2)nc1-c1cccs1`, for which, where the note is “Plasmodium falciparum, 3D7”, the XC50 was 869 nM.

For the setting “Plasmodium falciparum, 3D7”, `O=C(/C=C/c1ccc(Cl)c(Cl)c1)NCCCCCCN1CCCN(C(=O)Nc2cc(Cl)cc(Cl)c2)CC1` displayed an XC50 of 780 nM.

The molecule `Cc1ccc(-c2cncc(-c3cc(NC4CCN(Cc5ccccc5)CC4)nc(-c4ccccc4)n3)c2)cc1` showed an XC50 (Plasmodium falciparum, 3D7) of 720 nM.

Molecule `CCn1c(Sc2ccc(C#N)c([N+](=O)[O-])c2)nnc1-c1cccc(Cl)c1` showed an XC50 (Plasmodium falciparum, 3D7) of 446 nM.

Under “Plasmodium falciparum, 3D7”, `O=C(CCc1cccnc1)Nc1ccc(-c2cccc(-c3nc4cc(F)ccc4[nH]3)c2)cc1` displayed an XC50 of 922 nM.

Regarding `Cc1cc(NC(=O)c2coc3cc(F)c(N4CC(C)N(C)C(C)C4)cc23)cnc1-c1ccc(C#N)cc1` (stereo not given), the XC50 (Plasmodium falciparum, 3D7) turned out to be 695 nM.

Turning to `O=S(=O)(NCCN1CCCC1)c1cccc(-c2cccc(CNCc3ccccc3)c2)c1`, the XC50 (Plasmodium falciparum, 3D7) worked out at 811 nM.

`CN(C)c1ccc(CN2CCC(NC(=O)c3ccc(-c4cccc(Cl)c4)s3)CC2)cc1` showed an XC50 (Plasmodium falciparum, 3D7) of 924 nM.

In the case of `COc1ccc(CCNc2nc(NCc3ccccc3)c3cc(OC)c(OC)cc3n2)cc1OC`, for the setting “Plasmodium falciparum, 3D7”, the XC50 turned out to be 326 nM.

For the setting “Plasmodium falciparum, 3D7”, `Cc1ccccc1NC(=O)C1CSCN1C(=O)OCc1ccccc1` (stereo not given) gave an XC50 of 983 nM.

With `O=C(CC1CCCC1)N(Cc1ccc(-c2ccc(CNC3Cc4ccccc4C3)cc2)cc1)CC1CCCCN1` (stereo not given), where the note is “Plasmodium falciparum, 3D7”, the XC50 worked out at 1060 nM.

Turning to `COc1ccc(Nc2ncc3c(-c4cccc(NC(=O)c5ccc(N)cc5)c4)c[nH]c3n2)cc1OC`, the XC50 (Plasmodium falciparum, 3D7) came out at 975 nM.

Take `Cc1ccnc(NC(c2cccc(Cl)c2Cl)c2ccc3cccnc3c2O)c1` (stereo not given): the XC50 (Plasmodium falciparum, 3D7) stood at 1000 nM.

Regarding `O=C1CC(C(=O)Nc2cccc(-c3cccc(-c4nc5ccccc5[nH]4)c3)c2)c2ccccc2N1` (stereo not given), the XC50 (Plasmodium falciparum, 3D7) was 980 nM.

For the molecule `COc1ccc2c(=O)c3ccc(OC)cc3[nH]c2c1`, the XC50 (Plasmodium falciparum, 3D7) came to 810 nM.
